Test results from patent US12187742B2 (XRAD Therapeutics, Inc., priority 2018, dated 2025).
Structures can show the parent of a compound that is named as a salt.

Key:
DNA-PK = DNA-PK (Homo sapiens (Human), UniProt P78527); assay: DNA-PK Enzyme-Linked Immunosorbent Assay (phosphorylation of GST-p53 (1-101) peptide); assay type: biochemical; conditions: ELISA
Outline: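 ELISA with plate-bound GST-p53 (1-101) phosphorylated by DNA-PK (0.1 μg/mL final) with 20 μM ATP for 1 h at 25 °C. Compounds tested over 10 3-fold doses from 100 nM top final. Phospho-p53 Ser15 detected by antibody, HRP and TMB, absorbance at 450 nm.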

ATM = ATM (Homo sapiens (Human), UniProt Q13315); assay: ATM in Cell Western Assay (pKAP1 in etoposide-treated MCF-7 cells); assay type: cell-based
Sequence of ATM (Q13315 whole entry): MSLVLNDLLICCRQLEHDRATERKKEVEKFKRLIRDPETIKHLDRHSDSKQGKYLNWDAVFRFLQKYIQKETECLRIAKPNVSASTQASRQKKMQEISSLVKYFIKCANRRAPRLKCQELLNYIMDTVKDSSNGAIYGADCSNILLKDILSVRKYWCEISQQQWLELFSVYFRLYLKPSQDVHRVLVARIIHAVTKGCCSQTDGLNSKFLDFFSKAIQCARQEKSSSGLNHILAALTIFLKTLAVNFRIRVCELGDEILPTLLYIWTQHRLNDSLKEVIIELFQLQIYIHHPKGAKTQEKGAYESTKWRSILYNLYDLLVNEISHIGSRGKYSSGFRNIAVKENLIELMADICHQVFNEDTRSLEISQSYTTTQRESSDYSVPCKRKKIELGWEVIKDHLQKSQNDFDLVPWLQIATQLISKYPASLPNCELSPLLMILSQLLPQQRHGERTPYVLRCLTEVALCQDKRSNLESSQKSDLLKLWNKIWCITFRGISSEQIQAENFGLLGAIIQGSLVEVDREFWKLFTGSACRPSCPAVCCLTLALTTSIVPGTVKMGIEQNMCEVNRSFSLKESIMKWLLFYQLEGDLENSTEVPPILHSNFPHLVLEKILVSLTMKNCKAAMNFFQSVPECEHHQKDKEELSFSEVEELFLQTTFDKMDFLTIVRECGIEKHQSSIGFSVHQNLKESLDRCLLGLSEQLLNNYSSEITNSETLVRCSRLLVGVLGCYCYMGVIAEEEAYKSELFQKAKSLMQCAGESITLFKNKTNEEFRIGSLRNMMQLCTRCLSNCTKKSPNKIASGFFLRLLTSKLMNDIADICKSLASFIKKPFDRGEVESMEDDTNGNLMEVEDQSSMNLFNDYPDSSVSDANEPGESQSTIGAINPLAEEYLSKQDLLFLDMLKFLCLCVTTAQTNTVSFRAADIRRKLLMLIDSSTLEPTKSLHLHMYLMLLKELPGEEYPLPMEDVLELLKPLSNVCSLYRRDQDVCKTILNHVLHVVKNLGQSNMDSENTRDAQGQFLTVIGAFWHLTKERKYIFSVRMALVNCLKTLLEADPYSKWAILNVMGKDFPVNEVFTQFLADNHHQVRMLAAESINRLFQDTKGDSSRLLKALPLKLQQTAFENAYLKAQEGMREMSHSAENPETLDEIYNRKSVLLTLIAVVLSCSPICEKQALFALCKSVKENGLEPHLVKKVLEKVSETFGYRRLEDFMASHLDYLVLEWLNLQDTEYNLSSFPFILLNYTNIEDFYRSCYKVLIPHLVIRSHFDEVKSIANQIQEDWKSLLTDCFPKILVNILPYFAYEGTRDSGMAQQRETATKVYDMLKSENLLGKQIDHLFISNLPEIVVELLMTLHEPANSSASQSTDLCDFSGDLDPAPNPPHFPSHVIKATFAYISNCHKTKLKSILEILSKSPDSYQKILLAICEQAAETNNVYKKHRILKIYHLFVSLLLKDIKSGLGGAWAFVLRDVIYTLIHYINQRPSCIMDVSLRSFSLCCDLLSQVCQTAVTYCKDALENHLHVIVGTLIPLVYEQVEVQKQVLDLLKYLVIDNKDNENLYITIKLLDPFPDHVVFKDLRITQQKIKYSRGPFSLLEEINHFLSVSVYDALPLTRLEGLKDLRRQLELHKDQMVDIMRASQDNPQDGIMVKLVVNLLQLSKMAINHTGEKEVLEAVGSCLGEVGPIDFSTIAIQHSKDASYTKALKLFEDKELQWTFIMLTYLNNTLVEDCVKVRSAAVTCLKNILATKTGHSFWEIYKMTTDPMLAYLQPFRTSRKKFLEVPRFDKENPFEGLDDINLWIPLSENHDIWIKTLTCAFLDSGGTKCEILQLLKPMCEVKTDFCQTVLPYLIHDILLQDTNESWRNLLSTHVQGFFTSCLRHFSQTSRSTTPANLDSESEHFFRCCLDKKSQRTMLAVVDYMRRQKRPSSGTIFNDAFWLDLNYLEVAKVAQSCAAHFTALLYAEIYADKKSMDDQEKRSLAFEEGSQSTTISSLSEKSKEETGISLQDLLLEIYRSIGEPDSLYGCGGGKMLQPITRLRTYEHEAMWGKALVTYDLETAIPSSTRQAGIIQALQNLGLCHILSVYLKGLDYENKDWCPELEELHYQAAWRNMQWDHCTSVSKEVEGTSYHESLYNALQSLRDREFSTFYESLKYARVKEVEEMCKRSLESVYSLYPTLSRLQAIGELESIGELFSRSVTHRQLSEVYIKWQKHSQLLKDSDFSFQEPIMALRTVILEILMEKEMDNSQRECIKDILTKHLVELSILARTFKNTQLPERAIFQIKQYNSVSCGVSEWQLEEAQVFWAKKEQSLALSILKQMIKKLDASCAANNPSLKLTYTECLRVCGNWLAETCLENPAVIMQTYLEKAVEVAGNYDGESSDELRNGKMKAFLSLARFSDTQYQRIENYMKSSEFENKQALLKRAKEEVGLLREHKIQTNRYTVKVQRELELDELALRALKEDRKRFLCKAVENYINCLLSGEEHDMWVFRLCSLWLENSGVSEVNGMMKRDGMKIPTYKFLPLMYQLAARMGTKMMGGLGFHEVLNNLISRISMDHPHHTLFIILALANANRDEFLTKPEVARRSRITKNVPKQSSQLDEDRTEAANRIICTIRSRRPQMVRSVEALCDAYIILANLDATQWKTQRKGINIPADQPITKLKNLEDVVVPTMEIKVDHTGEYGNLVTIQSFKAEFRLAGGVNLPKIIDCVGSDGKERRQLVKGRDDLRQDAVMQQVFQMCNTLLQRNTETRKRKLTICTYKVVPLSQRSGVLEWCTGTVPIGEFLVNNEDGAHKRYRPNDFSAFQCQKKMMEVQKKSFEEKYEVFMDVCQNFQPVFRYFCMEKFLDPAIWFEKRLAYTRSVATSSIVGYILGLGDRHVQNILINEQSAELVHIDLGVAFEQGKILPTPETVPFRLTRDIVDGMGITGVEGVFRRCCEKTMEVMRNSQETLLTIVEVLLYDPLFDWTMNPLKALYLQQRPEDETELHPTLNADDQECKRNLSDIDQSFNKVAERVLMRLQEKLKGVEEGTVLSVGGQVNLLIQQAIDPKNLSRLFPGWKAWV
Outline: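 Cells received compounds in a 10-dose, 3-fold series from a 1 μM final top concentration, then 100 μM etoposide, for 1 hr at 37° C. They were then fixed with paraformaldehyde and permeabilized with 0.1% Triton X-100. After immunostaining, plates were scanned on an infrared imager.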

[1] = MCF-7 cells, etoposide 100 μM, 1 hr, pKAP1 readout

| SMILES | IC50 (DNA-PK; ATP 20 μM) | IC50 (ATM; [1]) | IC50 (DNA-PK; 20 μM ATP) | IC50 (ATM; pKAP1 in etoposide-treated MCF-7 cells) |
| --- | --- | --- | --- | --- |
| COc1ccc(S(=O)(=O)Nc2cc(-c3ccc4ncc5c(c4c3)C3(CCC3)C(=O)N5C)cnc2OCCCN(C)C)cn1 [Example 133, N-(2-(3-(Dimethylamino)propoxy)-5-(3′-methyl-2′-oxo-2′,3′-dihydrospiro[cyclobulane-l.1′-pyrrolo[2,3-c]quinolin]-8′-yl)pyridin-3-yl)-6-methoxypyridine-3-sulfonamide hydrochloride] | 0.5 to 1 nM | 1 to 100 nM |  |  |
| CN(C)CCCOc1ncc(-c2ccc3ncc4c(c3c2)C2(CN(c3ccccc3)C2)C(=O)N4C)cc1NS(=O)(=O)c1ccccc1 [Example 114, N-(2-(3-(Dimethylamino)propoxy)-5-(3′-methyl-2′-oxo-1-phenyl-2′,3′-dihydrospiro[azetidine-3,1′-pyrrolo[2,3-c]quinolin]-8′-yl)pyridin-3-yl)benzenesulfonamide] | 1 to 100 nM | 1 to 100 nM |  |  |
| CC(C)NCCOc1ncc(-c2cc3c(cc2F)ncc2c3[C@]3(C[C@H](COC(C)C)C3)C(=O)N2C)cc1NS(C)(=O)=O [Example 410, cis-N-(5-(7′-Fluoro-3-(isopropoxymethyl)-3′-methyl-2′-oxo-2′,3′-dihydrospiro[cyclobutane-1,1′-pyrrolo[2,3-c]quinolin]-8′-yl)-2-(2-(isopropylamino)ethoxy)pyridin-3-yl)methanesulfonamide] |  |  | < 0.5 nM | 1 to 100 nM |
| CN(C)CCCOc1ncc(-c2ccc3ncc4c(c3c2)C2(CCC2)C(=O)N4C)cc1NS(=O)(=O)c1ccc(C(F)(F)F)nc1 [Example 146, N-(2-(3-(Dimethylamino)propoxy)-5-(3′-methyl-2′-oxo-2′,3′-dihydrospiro [cyclobulane-1,1′-pyrrolo[2,3-c]quinolin]-8′-yl)pyridin-3-yl)-6-(trifluoromethyl)pyridine-3-sulfonamide hydrochloride] | 1 to 100 nM | 1 to 100 nM |  |  |
| COc1cccc(S(=O)(=O)Nc2cc(-c3ccc4ncc5c(c4c3)C3(CC3)C(=O)N5C)cnc2OCCCN(C)C)c1 [Example 104] | 1 to 100 nM | 0.5 to 1 nM |  |  |

The remaining lines, values ahead:

| IC50 (DNA-PK; ATP 20 μM) | IC50 (ATM; [1]) | IC50 (DNA-PK; 20 μM ATP) | IC50 (ATM; pKAP1 in etoposide-treated MCF-7 cells) | SMILES |
| --- | --- | --- | --- | --- |
| 0.5 to 1 nM | 1 to 100 nM |  |  | Cc1ncc(S(=O)(=O)Nc2cc(-c3ccc4ncc5c(c4c3)C3(CCC3)C(=O)N5C)cnc2OCCCN(C)C)s1 [Example 289, N-(2-(3-(Dimethylamino)propoxy)-5-(3′-methyl-2′-oxo-2′,3′-dihydrospiro [cyclobutane-1,1′-pyrrolo [2,3-c]quinolin]-8′-yl)pyridin-3-yl)-2-methylthiazole-5-sulfonamide] |
| 1 to 100 nM | 1 to 100 nM |  |  | CN1C(=O)C2(CC2)c2c1cnc1cc(F)c(-c3cnc(OCCCN4CCCC4)c(NS(=O)(=O)c4ccccc4)c3)cc21 [Example 124, N-(5-(7′-Fluoro-3′-methyl-2′-oxo-2′,3′-dihydrospiro[cyclopropane-1,1′-pyrrolo[2,3-c]quinolin]-8′-yl)-2-(3-(pyrrolidin-1-yl)propoxy)pyridin-3-yl)benzenesulfonamide] |
| 0.5 to 1 nM | 1 to 100 nM |  |  | CN1C(=O)C2(CCC2)c2c1cnc1ccc(-c3cnc(OCCNC(C)(C)C)c(NS(C)(=O)=O)c3)cc21 [Example 309] |
| < 0.5 nM | 1 to 100 nM |  |  | CN1C(=O)C2(CCC2)c2c1cnc1ccc(-c3cnc(OCCCN4CCCC(F)C4)c(NS(C)(=O)=O)c3)cc21 (stereo not shown) [Example 282, N-(2-(3-(3-Fluoropiperidin-1-yl)propoxy)-5-(3′-methyl-2′-oxo-2′,3′-dihydrospiro[cyclobutane-1,1′-pyrrolo[2,3-c]quinolin]-8′-yl)pyridin-3-yl)methanesulfonamide] |
| 0.5 to 1 nM | 1 to 100 nM |  |  | CN(C)CCCOc1ncc(-c2ccc3ncc4c(c3c2)C2(CCC2)C(=O)N4C)cc1NS(=O)(=O)c1cc(F)cc(F)c1 [Example 153, N-(2-(3-(Dimethylamino)propoxy)-5-(3′-methyl-2′-oxo-23′-dihydrospiro[cyclobutane-1,1′-pyrrolo[2,3-c]quinolin]-8′-yl)pyridin-3-yl)-3,5-difluorobenzenesulfonamide] |
| < 0.5 nM | 1 to 100 nM |  |  | CN(C)CCCOc1ncc(-c2ccc3ncc4c(c3c2)C2(CCC2)C(=O)N4C)cc1NS(=O)(=O)N1CCNCC1 [Example 177, N-(2-(3-(Dimethylamino)propoxy)-5-(3′-methyl-2′-oxo-2′,3′-dihydrospiro [cyclobutane-1,1′-pyrrolo[2,3-c]quinolin]-8′-yl)pyridin-3-yl)piperazine-1-sulfonamide] |
